Measurements from US12297190B2, “Modulators of STING (stimulator of interferon genes)” (PFIZER INC., priority 2019, dated 2025).
Structures can show the parent of a compound that is named as a salt.

Key:
[1] = target: R232-STING (Homo sapiens, UniProt Q86WV6, H232R); assay: biochemical
[2] = target: T1, STING (Homo sapiens, UniProt Q86WV6, G230A/H232R/R293Q/R71H); assay: Phosphorylation of IRF3: THP-1 cell ELISA; format: cell-based; conditions: THP-1 cells, 3 hours incubation, phospho-IRF3 ELISA; read-out: THP-1 CELL P-IRF3 EC50
T1 construct: host or cells: THP-1 and THP-1 Lucia ISG cells
T1 sequence (Q86WV6 whole entry R71H/G230A/H232R/R293Q): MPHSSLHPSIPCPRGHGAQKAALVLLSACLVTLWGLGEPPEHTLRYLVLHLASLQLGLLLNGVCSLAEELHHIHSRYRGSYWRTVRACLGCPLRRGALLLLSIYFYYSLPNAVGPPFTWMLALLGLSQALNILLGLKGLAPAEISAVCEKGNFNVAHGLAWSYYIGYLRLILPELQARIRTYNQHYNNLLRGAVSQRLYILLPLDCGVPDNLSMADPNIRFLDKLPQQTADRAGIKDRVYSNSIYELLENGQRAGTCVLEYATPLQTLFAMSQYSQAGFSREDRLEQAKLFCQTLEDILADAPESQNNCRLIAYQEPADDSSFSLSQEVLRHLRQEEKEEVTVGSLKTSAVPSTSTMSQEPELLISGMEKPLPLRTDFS
Protocol: Phosphorylation of IRF3: THP-1 Cell ELISA
STING activation results in recruitment of TBK1 and phosphorylation of IRF3 transcription factor before induction of type I interferons. THP-1 cells (InvivoGen) were grown in RPMI media plus 2 mM L-glutamine, 10% fetal bovine serum, and 0.5% Pen-Strep. 10^4 cells were seeded in 96-well plates and incubated overnight 37° C., 5% CO2. Compounds serial diluted compounds in media (final 0.5% DMSO) were added to the cells and incubated for an additional 3 hours. After incubation, the plates were centrifuged at 2000 rpm for 5 min. The cells were then lysed in 100 μl RIPA buffer and vortexed for 30 minutes at room temperature. 25 μl of lysate was then transferred to clear polystyrene High Bind plates that had been previously coated with mouse anti-human IRF-3 capture antibody (BD Pharmigen), and allowed to incubate at 4° C. for 16 hours. The plates were then washed and incubated with rabbit anti-phospho-IRF3 detection antibody (Cell Signaling Technologies) for 1.5 hours at room temperature. Finally, an HRP-linked secondary antibody (Cell Signaling Technologies) was added for 30 min before the Glo Substrate Reagent (R&D Systems) was used generate the luminescent signal. The signal was measured using a Perkin-Elmer Envision microplate reader. Data were normalized to “% effect” with a positive control STING agonist that was known to maximize the phosphorylated IRF3 signal and the negative control was DMSO.

[3] = target: T1, STING; assay: Interferon-β induction: THP-1 Lucia ISG reporter cell line; format: cell-based; conditions: THP-1 Lucia ISG cells, 24 hours incubation, luciferase reporter; read-out: THP-1 Lucia ISG Cells IFN-β EC50
Protocol: Interferon-β Induction: THP-1 ISG Reporter Cell Line
THP-1 Lucia™ ISG cells (InvivoGen) express the secreted luciferase “Lucia” reporter gene under the control of an IRF-inducible composite promotor comprised of five interferon response elements. THP-1 Lucia™ ISG cells were grown in RPMI media plus 2 mM L-glutamine, 10% fetal bovine serum, and 0.5% Pen-Strep. Hygromycin B and Zeocin were present to maintain stable transfection. 10^4 cells were seeded in 96-well plates and incubated overnight 37° C., 5% CO2. 50 μL of serial diluted compounds in media (final 0.5% DMSO) was and incubated for an additional 24 hours. After incubation, the plates were centrifuged at 2000 rpm for 10 min. 50 μl of cell culture supernatant of each well was transferred to a white, opaque 96-well plate. One pouch of QUANTI-Luc™ (InvivoGen) powder was prepared in 25 mL of endotoxin-free water and 100 μL of prepared warm QUANTI-Luc solution were added to each well containing the supernatant. The luminescence signal was measured using a Perkin-Elmer Envision microplate reader. Data were normalized to “% effect” with a positive control STING agonist that was known to maximize the luciferase signal and the negative control DMSO.

R232-STING, sequence (Q86WV6 155-341 H232R): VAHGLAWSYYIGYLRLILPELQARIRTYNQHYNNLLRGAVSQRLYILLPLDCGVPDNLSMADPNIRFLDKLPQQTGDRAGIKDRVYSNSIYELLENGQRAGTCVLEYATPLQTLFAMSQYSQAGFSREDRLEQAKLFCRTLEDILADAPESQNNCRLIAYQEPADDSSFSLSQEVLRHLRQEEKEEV

SMILES | Ki [1] [nM] | EC50 [2] [nM] | EC50 [3] [nM]
CCn1nc(C)cc1-c1n[nH]c(-c2cc(C(N)=O)cc3c2cnn3C)n1 [Example A01, 4-[3-(1-ethyl-3-methyl-1H-pyrazol-5-yl)-1H-1,2,4-triazol-5-yl]-1-methyl-1H-indazole-6-carboxamide] | 25.1 | 920 | 1020
CCn1nc(C)cc1-c1n[nH]c(-c2cc(C(N)=O)cc3c2cnn3CC)n1 [Example B01, 1-ethyl-4-[3-(1-ethyl-3-methyl-1H-pyrazol-5-yl)-1H-1,2,4-triazol-5-yl]-1H-indazole-6-carboxamide] | 430 | 25100 | 23200
CCn1nc(C)c(F)c1-c1nc(-c2nc(C(N)=O)cc3c2cnn3C)c(CN)s1 [Example S01, 4-[5-(aminomethyl)-2-(1-ethyl-4-fluoro-3-methyl-1H-pyrazol-5-yl)-1,3-thiazol-4-yl]-1-methyl-1H-pyrazolo[4,3-c]pyridine-6-carboxamide] | 11.5 | 1300 | 2300
CCn1nc(C)cc1-c1n[nH]c(-c2cc(C(N)=O)cc3c(C)n[nH]c23)n1 [Example L01, 7-[3-(1-ethyl-3-methyl-1H-pyrazol-5-yl)-1H-1,2,4-triazol-5-yl]-3-methyl-1H-indazole-5-carboxamide] | 66.2 | 3090 | 3250
CCn1nc(C)cc1-c1n[nH]c(-c2cc(C(N)=O)cc3c2cnn3CCN2CCNC(=O)C2)n1 [YY26, 4-[3-(1-ethyl-3-methyl-1H-pyrazol-5-yl)-1H-1,2,4-triazol-5-yl]-1-[2-(3-oxopiperazin-1-yl)ethyl]-1H-indazole-6-carboxamide] | 195 | > 33300 | > 33300
CCn1nc(C)c(O)c1-c1nc(-c2nc(C(N)=O)cc3c2cnn3C)c(CN)s1 [Example X01, (4-(6-carbamoyl-1-methyl-1H-pyrazolo[4,3-c]pyridin-4-yl)-2-(1-ethyl-4-hydroxy-3-methyl-1H-pyrazol-5-yl)thiazol-5-yl)methanaminium formate] | 0.6 | 340 | 380
CCn1nc(C)cc1-c1nnc(-c2cc(C(N)=O)cc3c2cnn3C2CC3CNCC3C2)[nH]1 (stereo not drawn) [YY13, 4-[5-(1-ethyl-3-methyl-1H-pyrazol-5-yl)-4H-1,2,4-triazol-3-yl]-1-(octahydrocyclopenta[c]pyrrol-5-yl)-1H-indazole-6-carboxamide] | 431 | > 100000 | > 100000
CCn1nc(C)cc1-c1n[nH]c(-c2cc(C(N)=O)cc3nn(C)cc23)n1 [Example C01, 4-[3-(1-ethyl-3-methyl-1H-pyrazol-5-yl)-1H-1,2,4-triazol-5-yl]-2-methyl-2H-indazole-6-carboxamide] | 230 | ≥ 100000 | 45300
CCn1nc(C)cc1-c1n[nH]c(-c2cc(C(N)=O)cc3c2cnn3CCN2CCO[C@@H](C)C2)n1 [YY24, 4-[3-(1-ethyl-3-methyl-1H-pyrazol-5-yl)-1H-1,2,4-triazol-5-yl]-1-{2-[(2S)-2-methylmorpholin-4-yl]ethyl}-1H-indazole-6-carboxamide] | 354 | > 33300 | > 100000
CCn1nc(C)cc1-c1nnc(-c2cc(C(N)=O)cc3c2cnn3[C@@H]2CCNC2)[nH]1 [YY14, 4-[5-(1-ethyl-3-methyl-1H-pyrazol-5-yl)-4H-1,2,4-triazol-3-yl]-1-[(3R)-pyrrolidin-3-yl]-1H-indazole-6-carboxamide] | 484 | > 100000 | > 100000
CCn1nc(C)cc1-c1nnc(-c2cc(C(N)=O)cc3c2cnn3CCN2CCC(OC)CC2)[nH]1 [YY11, 4-[5-(1-ethyl-3-methyl-1H-pyrazol-5-yl)-4H-1,2,4-triazol-3-yl]-1-[2-(4-methoxypiperidin-1-yl)ethyl]-1H-indazole-6-carboxamide] | 529 | > 100000 | > 100000
CCn1nc(CO)cc1-c1n[nH]c(-c2nc(C(N)=O)cc3c2cnn3C)n1 [YY30, 4-{3-[1-ethyl-3-(hydroxymethyl)-1H-pyrazol-5-yl]-1H-1,2,4-triazol-5-yl}-1-methyl-1H-pyrazolo[4,3-c]pyridine-6-carboxamide] | 41.6 | > 13300 | > 33300
CCn1nc(C)c(F)c1-c1nc(-c2cc(C(N)=O)cc3c2cnn3CCCN2CCOCC2)n[nH]1 [Example C06, 4-[5-(1-ethyl-4-fluoro-3-methyl-1H-pyrazol-5-yl)-1H-1,2,4-triazol-3-yl]-1-[3-(morpholin-4-yl)propyl]-1H-indazole-6-carboxamide] | 277 | 96700 | 92800
CCn1nc(C)cc1-c1nc(-c2nc(C(N)=O)cc3c2cnn3C)n(CC(=O)O)n1 [YY29, [5-(6-carbamoyl-1-methyl-1H-pyrazolo[4,3-c]pyridin-4-yl)-3-(1-ethyl-3-methyl-1H-pyrazol-5-yl)-1H-1,2,4-triazol-1-yl]acetic acid] | 20.2 | > 33300 | > 33300
Cc1nn(CCCO)c(-c2nc(-c3nc(C(N)=O)cc4c3cnn4C)c(CN)s2)c1O [Example AF02] | 11.5 | 2260 | 1950
Cc1nn(CCC(=O)O)c(-c2n[nH]c(-c3nc(C(N)=O)cc4c3cnn4C)n2)c1O [YY32, 3-{5-[5-(6-carbamoyl-1-methyl-1H-pyrazolo[4,3-c]pyridin-4-yl)-1H-1,2,4-triazol-3-yl]-4-hydroxy-3-methyl-1H-pyrazol-1-yl}propanoic acid] | 7.2 | > 11100 | > 10000
Cc1cc(-c2nc(-c3nc(C(N)=O)cc4c3cnn4C)c(CN)o2)n(CCCO)n1 [Example U04] | 34.4 | 1990 | 1850
CCn1nc(C)c(F)c1-c1nc(-c2nc(C(N)=O)cc3c2cnn3CCN2CCC(C#N)CC2)n(C)n1 [Example J02] | 32.4 | 3600 | 2760
Cc1nn(CCCO)c(-c2nc(-c3nc(C(N)=O)cc4c3cnn4C)c(CN)o2)c1O [Example U03] | 29.8 | 2820 | 2520
CCn1cc(C)c(O)c1-c1nc(-c2nc(C(N)=O)cc3c2cnn3C)cs1 [Example AG01, 4-[2-(1-ethyl-3-hydroxy-4-methyl-1H-pyrrol-2-yl)-1,3-thiazol-4-yl]-1-methyl-1H-pyrazolo[4,3-c]pyridine-6-carboxamide] | 8.3 | 240 | 340
Cc1cc(-c2nc(-c3nc(C(N)=O)cc4c3cnn4C)c(CN)s2)n(CCCO)n1 [Example AF01, 4-{5-(aminomethyl)-2-[1-(3-hydroxypropyl)-3-methyl-1H-pyrazol-5-yl]-1,3-thiazol-4-yl}-1-methyl-1H-pyrazolo[4,3-c]pyridine-6-carboxamide] | 138 | 5950 | 5220
CCn1nc(C)cc1-c1n[nH]c(-c2cc(C(N)=O)cc3c2cnn3CCN2CCOC(C)C2)n1 (stereo not drawn) [YY22, 4-[3-(1-ethyl-3-methyl-1H-pyrazol-5-yl)-1H-1,2,4-triazol-5-yl]-1-[2-(2-methylmorpholin-4-yl)ethyl]-1H-indazole-6-carboxamide] | 491 | > 33300 | > 33300
CCn1nc(C)cc1-c1csc(-c2cc(C(N)=O)cc3c2cnn3C)n1 [Example H01, 4-[4-(1-ethyl-3-methyl-1H-pyrazol-5-yl)-1,3-thiazol-2-yl]-1-methyl-1H-indazole-6-carboxamide] | 87.6 | 10800 | 7170
Cc1nn(CCC(=O)O)c(-c2n[nH]c(-c3cc(C(N)=O)cc4c3cnn4C)n2)c1F [YY06, 3-{5-[5-(6-carbamoyl-1-methyl-1H-indazol-4-yl)-1H-1,2,4-triazol-3-yl]-4-fluoro-3-methyl-1H-pyrazol-1-yl}propanoic acid] | 47.1 | > 100000 | > 100000
